Data published in patent US12673945B2, “3-((8-((1H-pyrazol-4-yl)amino)imidazo[1,2-a]pyridin-3-yl)ethinyl)-n-phenylbenzamide derivative, method for preparing same, and pharmaceutical composition containing same as active ingredient for prevention or treatment of cancer” (DAEGU-GYEONGBUK MEDICAL INNOVATION FOUNDATION, priority 2020, dated 2026).

Columns and labels:
Format in all cases: cell-based
T315I-KOPM28 cells = experiment: human CML cell proliferation inhibition; conditions: 72 hours, Cell Counting Kit-8
Summary of the method: (§1)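 Here GI50 reflects CCK-8 absorbance (450 nm) after a 72 h compound exposure, calculated relative to vehicle wells. Compound was tested up to a final 10 μM. The parental lines carry Bcr-Abl, the T315I lines carry the T315I gatekeeper mutant.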

T315I-TCCS cells = experiment: human CML cell proliferation inhibition; conditions: 72 hours, Cell Counting Kit-8
Summary of the method: as §1

KOPM28 cells = experiment: human CML cell proliferation inhibition; conditions: 72 hours, Cell Counting Kit-8
Summary of the method: as §1

TCCS cells = experiment: human CML cell proliferation inhibition; conditions: 72 hours, Cell Counting Kit-8
Summary of the method: as §1

Parental (Ba/F3) = experiment: Ba/F3 cell proliferation inhibition; conditions: BaF3; 72 hours, Cell Counting Kit-8
Summary of the method: (§2)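 GI50 derived from CCK-8 absorbance at 450 nm (2 h development), expressed relative to DMSO vehicle. Cells (parental or T315I-Bcr-Abl Ba/F3, 1×10^4/well) received nine threefold-diluted concentrations, final 0 to 10 μM, for 72 h at 37 °C.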

T315I-Bcr-Abl (Ba/F3) = experiment: Ba/F3 cell proliferation inhibition; conditions: BaF3; 72 hours, Cell Counting Kit-8
Summary of the method: as §2

Compound	GI50 (T315I-KOPM28 cells) [nM]	GI50 (T315I-TCCS cells) [nM]	GI50 (KOPM28 cells) [nM]	GI50 (TCCS cells) [nM]	GI50 (Parental (Ba/F3)) [nM]	GI50 (T315I-Bcr-Abl (Ba/F3)) [nM]
Cc1cc(F)c(C(=O)Nc2cc(CN3CCN(CCO)CC3)cc(C(F)(F)F)c2)cc1C#Cc1cnc2c(Nc3cnn(C)c3)cccn12 [Example 69, 2-fluoro-N-(3-((4-(2-hydroxyethyl)piperazin-1-yl)methyl)-5-(trifluoromethyl)phenyl)-4-methyl-5-((8-((1-methyl-1H-pyrazol-4-yl)amino)imidazo[1,2-a]pyridin-3-yl)ethynyl)benzamide]	> 100	> 100	< 10	100	> 5000	50 to 500
Cc1cc(F)c(C(=O)Nc2cc(CN3CCN(S(C)(=O)=O)CC3)cc(C(F)(F)F)c2)cc1C#Cc1cnc2c(Nc3cnn(C)c3)cccn12 [Example 70, 2-fluoro-4-methyl-5-((8-((1-methyl-1H-pyrazol-4-yl)amino)imidazo[1,2-a]pyridin-3-yl)ethynyl)-N-(3-((4-(methylsulfonyl)piperazin-1-yl)methyl)-5-(trifluoromethyl)phenyl)benzamide]	> 100	> 100	< 10	< 10	> 5000	50 to 500
Cc1cc(F)c(C(=O)Nc2cc(CN3CCN(C)C(=O)C3)cc(C(F)(F)F)c2)cc1C#Cc1cnc2c(Nc3cnn(C)c3)cccn12 [Example 71, 2-fluoro-4-methyl-5-((8-((1-methyl-1H-pyrazol-4-yl)amino)imidazo[1,2-a]pyridin-3-yl)ethynyl)-N-(3-((4-methyl-3-oxopiperazin-1-yl)methyl)-5-(trifluoromethyl)phenyl)benzamide]	> 100	100	< 10	< 10	> 5000	50 to 500
Cc1cc(F)c(C(=O)Nc2cc(CN3CC(OC(C)C)C3)cc(C(F)(F)F)c2)cc1C#Cc1cnc2c(Nc3cnn(C)c3)cccn12 [Example 72, 2-fluoro-N-(3-((3-isopropoxyazetidin-1-yl)methyl)-5-(trifluoromethyl)phenyl)-4-methyl-5-((8-((1-methyl-1H-pyrazol-4-yl)amino)imidazo[1,2-a]pyridin-3-yl)ethynyl)benzamide]	> 100	> 100	< 10	< 10	> 5000	50 to 500
Cc1cc(F)c(C(=O)Nc2cc(Cn3ccnc3)cc(C(F)(F)F)c2)cc1C#Cc1cnc2c(Nc3cnn(C)c3)cccn12 [Example 73, N-(3-((1H-imidazol-1-yl)methyl)-5-(trifluoromethyl)phenyl)-2-fluoro-4-methyl-5-((8-((1-methyl-1H-pyrazol-4-yl)amino)imidazo[1,2-a]pyridin-3-yl)ethynyl)benzamide]	100	100	< 10	< 10	> 5000	50 to 500
Cc1cc(F)c(C(=O)Nc2cc(Cn3cncn3)cc(C(F)(F)F)c2)cc1C#Cc1cnc2c(Nc3cnn(C)c3)cccn12 [Example 74, N-(3-((1H-1,2,4-triazol-1-yl)methyl)-5-(trifluoromethyl)phenyl)-2-fluoro-4-methyl-5-((8-((1-methyl-1H-pyrazol-4-yl)amino)imidazo[1,2-a]pyridin-3-yl)ethynyl)benzamide]	100	100	< 10	< 10	> 5000	< 50
Cc1cn(-c2cc(NC(=O)c3cc(C#Cc4cnc5c(Nc6cn[nH]c6)cccn45)c(C)cc3F)cc(C(C)(C)C#N)c2)cn1 [Example 75, 5-((8-((1H-pyrazol-4-yl)amino)imidazo[1,2-a]pyridin-3-yl)ethynyl)-N-(3-(2-cyanopropan-2-yl)-5-(4-methyl-1H-imidazol-1-yl)phenyl)-2-fluoro-4-methylbenzamide]	100	100	< 10	< 10	> 5000	< 50
